Assay results: PubChem BioAssay AID330 (DTP/NCI, 2004)
Several values for one entry are separate records, joined by “and”; a condition that tells them apart may be missing. Identical values can stand only once. Inconclusive results and toxic doses are left out. Rule for the calls: active = survival T/C of 150% or more; inactive = T/C below 125% in these data. Square brackets hold non-standard residues; d marks the D form. Peptide text beside a SMILES is read from it. * marks the point of attachment. ξ: configuration not given here. Cbz = O=C(OCc1ccccc1)*; ξNva = CCCC(N)C(=O)O

Tested on: P388 leukemia ip, CD2F1 mice, survival T/C
Test: NCI In Vivo Anticancer Drug Screen. Data for tumor model P388 Leukemia (intraperitoneal) in CD2F1 (CDF1) mice
Details: endpoint: median survival time, higher = longer survival
In short: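 Mice carrying the transplanted tumor received test compound or vehicle. Survival was recorded in each group, and the value is the treated-group measurement divided by that of the vehicle-treated control group.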

[1] = dose: 50.0 mg/kg/injection, schedule: Q01DX005 (ip), vehicle: saline with Tween-80
[2] = dose: 100.0 mg/kg/injection, schedule: Q01DX005 (ip), vehicle: saline with Tween-80
[3] = dose: 200.0 mg/kg/injection, schedule: Q01DX005 (ip), vehicle: saline with Tween-80
[4] = dose: 50.0 mg/kg/injection, schedule: Q01DX009 (ip), vehicle: Klucel (hydroxypropylcellulose) (HPC)
[5] = dose: 100.0 mg/kg/injection, schedule: Q01DX009 (ip), vehicle: Klucel (hydroxypropylcellulose) (HPC)
[6] = dose: 200.0 mg/kg/injection, schedule: Q01DX009 (ip), vehicle: Klucel (hydroxypropylcellulose) (HPC)
[7] = dose: 100.0 mg/kg/injection, schedule: Q01DX009 (ip), vehicle: saline with Tween-80
[8] = dose: 50.0 mg/kg/injection, schedule: Q01DX009 (ip), vehicle: saline with Tween-80
[9] = dose: 200.0 mg/kg/injection, schedule: Q01DX009 (ip), vehicle: saline with Tween-80
[10] = dose: 100.0 mg/kg/injection, schedule: Q04DX002 (ip), vehicle: Klucel (hydroxypropylcellulose) (HPC)
[11] = dose: 200.0 mg/kg/injection, schedule: Q04DX002 (ip), vehicle: Klucel (hydroxypropylcellulose) (HPC)
[12] = dose: 400.0 mg/kg/injection, schedule: Q04DX002 (ip), vehicle: Klucel (hydroxypropylcellulose) (HPC)
[13] = dose: 60.0 mg/kg/injection, schedule: Q01DX005 (ip), vehicle: saline with Tween-80
[14] = dose: 120.0 mg/kg/injection, schedule: Q01DX005 (ip), vehicle: saline with Tween-80
[15] = dose: 240.0 mg/kg/injection, schedule: Q01DX005 (ip), vehicle: saline with Tween-80

Measured: T/C

CC(C)(C)OC(=O)NC1CN(OCc2ccccc2)C1=O (stereo not drawn)
inactive: [1] 100 % of control | [2] 94 % of control | [3] 89 % of control

CC(=O)OCc1c(COC(C)=O)c(C(F)(F)F)n2c1CCC2
inactive: [4] 90 % of control | [5] 93 % of control | [6] 104 % of control

CC(C)=CCCC1(C)C=Cc2c(ccc3c(C)noc23)O1 (stereo not drawn)
inactive: [1] 100 % of control | [2] 89 % of control | [3] 110 % of control

C/C=C/C=C1/OC(C)=C(C(C)=O)C1=O
inactive: dose: 12.5 mg/kg/injection, schedule: Q01DX009 (ip), vehicle: saline + Tween-80 + alcohol 117 % of control | dose: 25.0 mg/kg/injection, schedule: Q01DX009 (ip), vehicle: saline + Tween-80 + alcohol 114 % of control | dose: 100.0 mg/kg/injection, schedule: Q01DX009 (ip), vehicle: saline + Tween-80 + alcohol 112 % of control | [7] 124 % of control | dose: 200.0 mg/kg/injection, schedule: Q01DX009 (ip), vehicle: saline + Tween-80 + alcohol 123 % of control

O=C(NC(CCS(=O)(=O)n1ccnc1)C(=O)OCc1ccccc1)OCc1ccccc1 (stereo not drawn)
inactive: dose: 12.5 mg/kg/injection, schedule: Q01DX009 (ip), vehicle: other 97 % of control | dose: 25.0 mg/kg/injection, schedule: Q01DX009 (ip), vehicle: other 104 % of control | dose: 50.0 mg/kg/injection, schedule: Q01DX009 (ip), vehicle: other 106 % of control | dose: 100.0 mg/kg/injection, schedule: Q01DX009 (ip), vehicle: other 97 % of control | dose: 200.0 mg/kg/injection, schedule: Q01DX009 (ip), vehicle: other 90 % of control

COC(=O)C1C(=O)C2CCC1C(=O)C2C(=O)OC (stereo not drawn)
inactive: [8] 93 % of control | [7] 93 % of control | [9] 98 % of control

CCNC(=O)/C=C/c1cccc(Br)c1
inactive: [1] 105 % of control | [2] 105 % of control | [3] 98 % of control

Cc1nc2ccccc2n(CC2CCCN3CCCC[C@H]23)c1=O (stereo partly drawn)
inactive: [1] 97 % of control | [2] 101 % of control

Cc1c(O)c(=O)ccn1C1OC(CO)C(O)C1O (stereo not drawn)
inactive: dose: 25.0 mg/kg/injection, schedule: Q01DX005 (ip), vehicle: saline 99 % of control | dose: 50.0 mg/kg/injection, schedule: Q01DX005 (ip), vehicle: saline 104 % of control | dose: 100.0 mg/kg/injection, schedule: Q01DX005 (ip), vehicle: saline 99 % of control | dose: 200.0 mg/kg/injection, schedule: Q01DX005 (ip), vehicle: saline 104 % of control | dose: 400.0 mg/kg/injection, schedule: Q01DX005 (ip), vehicle: saline 105 % of control

O=C(OC1(c2nccc3ccccc23)CCCN(Cc2ccccc2)C1)c1ccccc1 (stereo not drawn)
inactive: [8] 106 % of control | [7] 109 % of control | [9] 104 % of control

CC1(C)NC(=O)N2CCCC(=O)CC21 (stereo not drawn)
inactive: dose: 100.0 mg/kg/injection, schedule: Q01DX001 (ip), vehicle: saline 96 % of control | dose: 200.0 mg/kg/injection, schedule: Q01DX001 (ip), vehicle: saline 95 % of control | dose: 400.0 mg/kg/injection, schedule: Q01DX001 (ip), vehicle: saline 96 % of control

CCn1c(=O)c2[nH]c(Cl)nc2n(CCCOC)c1=O
inactive: [10] 101 % of control | [11] 95 % of control | [12] 87 % of control

Cc1ccc(S(=O)(=O)NN=c2c3ccccc3ccc3ccccc23)cc1
inactive: [10] 94 % of control | [11] 91 % of control | [12] 90 % of control

CN(C)C1=CC(N(C)C)=NC12C(=N)N(C)C(=O)N(C)C2=O (stereo not drawn)
inactive: dose: 50.0 mg/kg/injection, schedule: Q01DX005 (ip), vehicle: water 104 % of control | dose: 100.0 mg/kg/injection, schedule: Q01DX005 (ip), vehicle: water 104 % of control | dose: 200.0 mg/kg/injection, schedule: Q01DX005 (ip), vehicle: water 108 % of control

O=C1NC(=O)C(c2ccccc2)(c2ccccc2)N1CCS
inactive: dose: 12.5 mg/kg/injection, schedule: Q04DX003 (ip), vehicle: saline 108 % of control | dose: 25.0 mg/kg/injection, schedule: Q04DX003 (ip), vehicle: Klucel (hydroxypropylcellulose) (HPC) 98 % of control and 108 % of control | dose: 25.0 mg/kg/injection, schedule: Q04DX003 (ip), vehicle: saline 100 % of control | dose: 50.0 mg/kg/injection, schedule: Q04DX003 (ip), vehicle: Klucel (hydroxypropylcellulose) (HPC) 98 % of control and 99 % of control | dose: 50.0 mg/kg/injection, schedule: Q04DX003 (ip), vehicle: saline 104 % of control | dose: 100.0 mg/kg/injection, schedule: Q04DX003 (ip), vehicle: Klucel (hydroxypropylcellulose) (HPC) 97 % of control | dose: 100.0 mg/kg/injection, schedule: Q04DX003 (ip), vehicle: saline 108 % of control | dose: 200.0 mg/kg/injection, schedule: Q04DX003 (ip), vehicle: Klucel (hydroxypropylcellulose) (HPC) 100 % of control and 117 % of control | dose: 200.0 mg/kg/injection, schedule: Q04DX003 (ip), vehicle: saline 94 % of control | dose: 400.0 mg/kg/injection, schedule: Q04DX003 (ip), vehicle: Klucel (hydroxypropylcellulose) (HPC) 106 % of control and 109 % of control

CCCC(NC(=O)OCc1ccccc1)C(=O)NCC(N)=O (stereo not drawn) (Cbz-[ξNva]-Gly-NH2)
inactive: dose: 50.0 mg/kg/injection, schedule: Q01DX005 (ip), vehicle: Klucel (hydroxypropylcellulose) (HPC) 103 % of control | dose: 100.0 mg/kg/injection, schedule: Q01DX005 (ip), vehicle: Klucel (hydroxypropylcellulose) (HPC) 100 % of control | dose: 200.0 mg/kg/injection, schedule: Q01DX005 (ip), vehicle: Klucel (hydroxypropylcellulose) (HPC) 100 % of control

C=CC1CC/C(=C/C)C(=O)O1 (stereo not drawn)
inactive: dose: 50.0 mg/kg/injection, schedule: Q04DX003 (ip), vehicle: saline with Tween-80 103 % of control | dose: 100.0 mg/kg/injection, schedule: Q04DX003 (ip), vehicle: saline with Tween-80 100 % of control | dose: 200.0 mg/kg/injection, schedule: Q04DX003 (ip), vehicle: saline with Tween-80 100 % of control

CN(C)N1C(=O)C(c2ccccc2)(c2ccccc2)CSC1=S
inactive: [4] 108 % of control | [5] 100 % of control | [6] 101 % of control

COC(=O)C1CC(C(=O)OC)c2nc3ccccc3nc21 (stereo not drawn)
inactive: dose: 60.0 mg/kg/injection, schedule: Q01DX005 (ip), vehicle: Klucel (hydroxypropylcellulose) (HPC) 100 % of control | dose: 120.0 mg/kg/injection, schedule: Q01DX005 (ip), vehicle: Klucel (hydroxypropylcellulose) (HPC) 98 % of control

Cc1ccc(S(=O)(=O)CC(=O)CC(=O)C(=O)Nc2ccc(C)cc2C)cc1
inactive: [13] 108 % of control | [14] 106 % of control | [15] 99 % of control

CCOC([O-])=N/C(=N/[n+]1ccccc1)c1ccccc1
inactive: [4] 107 % of control | [5] 96 % of control | [6] 100 % of control

COc1ccc(C(CNC(=O)Cc2ccc(Oc3cc(CC(=O)NCC(OC)c4ccc(OC)c(OC)c4)ccc3OC)cc2)OC)cc1OC (stereo not drawn)
inactive: [13] 94 % of control | [14] 86 % of control | [15] 92 % of control

Cc1cccc(-c2nc(N)nc(N)n2)c1
inactive: [8] 92 % of control | [7] 95 % of control | [9] 104 % of control

CCOC(=O)C(C#N)C(=N)C1CC(C)(C)OC1=O (stereo not drawn)
inactive: [13] 100 % of control | [14] 103 % of control | [15] 94 % of control
